Data taken from patent publication US12590069B2, “Crystalline salts of a plasma kallikrein inhibitor” (BioCryst Pharmaceuticals, Inc., priority 2018, dated 2026).
Where a name gives a salt, the structure may show the parent alone.

Experiments:
[1] = Phase I multiple ascending oral dose pharmacokinetics in healthy subjects (plasma, LC-MS/MS); type: in vivo, human; conditions: for Ctau (trough plasma concentration at end of dosing interval) / Cmax / AUC / Tmax: healthy subjects; for Ctau (trough plasma concentration at end of dosing interval) / Cmax / AUC: geometric mean; for Cmax / AUC / Tmax: human, plasma, po; for Tmax: median
Procedure: As part of a Phase I, double-blind, placebo-controlled dose-ranging study, the pharmacokinetics of multiple ascending oral doses of Compound I·2 (HCl) were evaluated in healthy subjects. Four ascending dose cohorts were enrolled for dosing in a sequential manner. At the start, twelve subjects were randomized into each cohort for administration of a 7-day or 14-day course of study drug (n=10/cohort received Compound I·2 (HCl) and n=2/cohort received matching placebo) according to the following dose regimens: 125 mg Compound I·2 (HCl) or placebo once per day (QD) for 7 days in Cohort 1; 250 mg Compound I·2 (HCl) or placebo QD for 7 days in Cohort 2; 500 mg Compound I·2 (HCl) or placebo QD for 7 days in Cohort 3; […] Overall, 37 out of the 40 subjects receiving multiple doses of Compound I·2 (HCl) completed their respective dose regimens and were available for assessment of PK parameters at either Day 7 or Day 14.
Serial blood samples were drawn for pharmacokinetic analysis before dose administration on Day 7 or Day 14, and over the following 24 hours. The plasma samples for determination of Compound I·2 (HCl) concentrations were analyzed with the use of a validated LC-MS/MS (Liquid Chromatography with tandem mass spectrometry) bioanalytical assay.
Plasma Compound I·2 (HCl) concentration versus time profiles on Day 7 after QD oral administration of Compound I·2 (HCl) at 125, 250, and 500 mg QD, and on Day 14 after QD oral administration of Compound I·2 (HCl) at 350 mg QD, are shown in FIG. 3.
Table 1 provides a summary of plasma pharmacokinetic parameters [the maximum (peak) plasma drug concentration (Cmax), time (observed time point) to reach maximum (peak) plasma drug concentration following drug administration (Tmax), the observed trough plasma concentration at the end of the dosing interval (Ctau), and the area under the plasma concentration-time curve over the dosing interval (AUCtau)] following 7 or 14 days of multiple oral doses of Compound I·2 (HCl).

[2] = tested on: lipopolysaccharide (LPS)- or bacterial-induced sepsis; conditions: LPS- or bacterial-induced sepsis in animals; cited from earlier work
[3] = tested on: hereditary angioedema (HAE); conditions: HAE patients; cited from earlier work
[4] = tested on: arthritis; conditions: rat models of arthritis; cited from earlier work
[5] = tested on: sepsis; conditions: cited from earlier work
[6] = tested on: middle cerebral artery occlusion (MCAO); conditions: mouse MCAO model; cited from earlier work
[7] = across the full 4-fold dose range (125 mg to 500 mg QD)
[8] = 125 mg, 125 mg QD oral, Day 7 (N = 10)
[9] = 350 mg, 350 mg QD oral, Day 14 (N = 9)
[10] = 350 mg, third dose column, 350 mg QD, Day 7 (N = 9), oral
[11] = 500 mg, second dose column, 500 mg QD, Day 7 (N = 9), oral

For N#Cc1cccc([C@@H](NCC2CC2)c2ccc(F)c(NC(=O)c3cc(C(F)(F)F)nn3-c3cccc(CN)c3)c2)c1 [Compound I•2(HCl)], the “Ctau (trough plasma concentration at end of dosing interval)” value ([1]; 125 mg QD oral, Day 7 (N = 10)) was 46.1 ng/mL, the “Increase in geometric mean AUCtau” value [1, 7] was 5.1 fold and the “Increase in geometric mean Cmax” value [1, 7] was 5.3 fold. For the same molecule, the Cmax [1, 8] was 97.8 ng/mL, the AUC [1, 8] was 1600 ng·h/mL and the Tmax [1, 8] was 5 h. The Cmax [1, 9] was 363 ng/mL, the AUC [1, 9] was 5720 ng·h/mL and the Cmax [1, 10] was 517 ng/mL. For the same molecule, the AUC [1, 10] was 8230 ng·h/mL, the Cmax [1, 11] was 217 ng/mL and the AUC [1, 11] was 3710 ng·h/mL. The Tmax [1, 11] was 6 h, the “Dose proportionality of exposure” value ([1]; increase from 125 mg to 250 mg QD and 250 mg to 500 mg QD) was “reasonable dose proportionality” and the “Ctau (trough plasma concentration at end of dosing interval)” value ([1]; second dose column, 500 mg QD, Day 7 (N = 9), oral) was 101 ng/mL.

In the case of “H-D-Pro-Phe-Arg-chloromethylketone [H-D-Pro-Phe-Arg-chloromethylketone (CMK), reference compound]”, the “Vascular permeability in multiple organs and lesions” value [2] is listed as “reduce vascular permeability in multiple organs and reduce lesions”.

In the case of NC(N)=NCCC[C@@H](N)C(=O)N[C@@H](CCCN=C(N)N)C(=O)N1CCC[C@H]1C(=O)N1C[C@H](O)C[C@H]1C(=O)NCC(=O)N[C@@H](Cc1cccs1)C(=O)N[C@@H](CO)C(=O)N1Cc2ccccc2C[C@@H]1C(=O)N1[C@H](C(=O)N[C@@H](CCCN=C(N)N)C(=O)O)C[C@@H]2CCCC[C@@H]21 [Icatibant], the “Efficacy in treating HAE” value [3] is given as “effective in treating HAE”.

For Cl.NCC1CCC(C(=O)N[C@@H](Cc2ccccc2)C(=O)Nc2ccc(CC(=O)O)cc2)CC1 (stereo partly drawn) [PKSI-527], the Joint swelling [4] is given as “reduce joint swelling”.

B1: C1-inhibitor: physiological inhibitor of kallikrein in human plasma (protein, UniProt P05155 23-500, looked up)
Plasma protease C1 inhibitor: NPNATSSSSQDPESLQDRGEGKVATTVISKMLFVEPILEVSSLPTTNSTTNSATKITANTTDEPTTQPTTEPTTQPTIQPTQPTTQLPTDSPTQPTTGSFCPGPVTLCSDLESHSTEAVLGDALVDFSLKLYHAFSAMKKVETNMAFSPFSIASLLTQVLLGAGENTKTNLESILSYPKDFTCVHQALKGFTTKGVTSVSQIFHSPDLAIRDTFVNASRTLYSSSPRVLSNNSDANLELINTWVAKNTNNKISRLLDSLPSDTRLVLLNAIYLSAKWKTTFDPKKTRMEPFHFKNSVIKVPMMNSKKYPVAHFIDQTLKAKVGQLQLSHNLSLVILVPQNLKHRLEDMEQALSPSVFKAIMEKLEMSKFQPTLLTLPRIKVTTSQDMLSIMEKLEFFDFSYDLNLCGLTEDPDLQVSAMQHQTVLELTETGVEAAAASAISVARTLLVFEVQQPFLFVLWDQQHKFPVFMGRVYDPRA
In the case of B1, the “Clinical outcome in sepsis patients” value [5] is listed as “Clinical improvement”, the Infarct size [6] is listed as “reduced infarct size” and the “Vascular permeability in multiple organs and lesions” value [2] is listed as “reduce vascular permeability in multiple organs and reduce lesions”.
